Measured values taken from US9267165B2, “Assays and kits for detecting protein binding” (DiscoveRx Corporation, priority 2002, dated 2016).
Like-named read-outs stand apart in the source and are kept apart here.

Assays:
JNK2 = JNK2 (Homo sapiens, UniProt P45984); details: IC50, Ki or Kd from the literature; cited from earlier work
EGFR = EGFR (Homo sapiens, UniProt P00533); details: IC50, Ki or Kd from the literature; cited from earlier work
ERBB2 = ERBB2 (Homo sapiens, UniProt P04626); details: IC50, Ki or Kd from the literature; cited from earlier work
p38α [1] = biological target: T1, p38α (Homo sapiens, UniProt Q16539); details: IC50, Ki or Kd from the literature; cited from earlier work
p38α [2] = biological target: T1, p38α; experiment: Competition binding assay, phage-displayed kinase vs immobilized ATP-site ligand (SB202190); parameters: the coding region for p38α was cloned into the phage genome in-frame with the gene encoding the major T7 capsid protein; made in house; host or cells: T7 phage grown in E. coli (BLT 5615 in the illustrative protocol); lysate used directly

T1 sequence (Q16539 whole entry): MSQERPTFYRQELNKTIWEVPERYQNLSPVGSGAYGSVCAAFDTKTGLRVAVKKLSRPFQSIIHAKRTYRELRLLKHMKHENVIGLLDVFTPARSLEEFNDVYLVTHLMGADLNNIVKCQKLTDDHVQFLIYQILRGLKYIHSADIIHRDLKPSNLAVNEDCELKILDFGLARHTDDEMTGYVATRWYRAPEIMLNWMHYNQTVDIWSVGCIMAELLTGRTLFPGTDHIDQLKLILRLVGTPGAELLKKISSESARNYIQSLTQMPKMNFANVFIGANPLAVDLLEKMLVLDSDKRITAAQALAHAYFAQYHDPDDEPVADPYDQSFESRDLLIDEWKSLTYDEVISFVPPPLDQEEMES
Chain of ERBB2 (P04626 23-1255, species assumed): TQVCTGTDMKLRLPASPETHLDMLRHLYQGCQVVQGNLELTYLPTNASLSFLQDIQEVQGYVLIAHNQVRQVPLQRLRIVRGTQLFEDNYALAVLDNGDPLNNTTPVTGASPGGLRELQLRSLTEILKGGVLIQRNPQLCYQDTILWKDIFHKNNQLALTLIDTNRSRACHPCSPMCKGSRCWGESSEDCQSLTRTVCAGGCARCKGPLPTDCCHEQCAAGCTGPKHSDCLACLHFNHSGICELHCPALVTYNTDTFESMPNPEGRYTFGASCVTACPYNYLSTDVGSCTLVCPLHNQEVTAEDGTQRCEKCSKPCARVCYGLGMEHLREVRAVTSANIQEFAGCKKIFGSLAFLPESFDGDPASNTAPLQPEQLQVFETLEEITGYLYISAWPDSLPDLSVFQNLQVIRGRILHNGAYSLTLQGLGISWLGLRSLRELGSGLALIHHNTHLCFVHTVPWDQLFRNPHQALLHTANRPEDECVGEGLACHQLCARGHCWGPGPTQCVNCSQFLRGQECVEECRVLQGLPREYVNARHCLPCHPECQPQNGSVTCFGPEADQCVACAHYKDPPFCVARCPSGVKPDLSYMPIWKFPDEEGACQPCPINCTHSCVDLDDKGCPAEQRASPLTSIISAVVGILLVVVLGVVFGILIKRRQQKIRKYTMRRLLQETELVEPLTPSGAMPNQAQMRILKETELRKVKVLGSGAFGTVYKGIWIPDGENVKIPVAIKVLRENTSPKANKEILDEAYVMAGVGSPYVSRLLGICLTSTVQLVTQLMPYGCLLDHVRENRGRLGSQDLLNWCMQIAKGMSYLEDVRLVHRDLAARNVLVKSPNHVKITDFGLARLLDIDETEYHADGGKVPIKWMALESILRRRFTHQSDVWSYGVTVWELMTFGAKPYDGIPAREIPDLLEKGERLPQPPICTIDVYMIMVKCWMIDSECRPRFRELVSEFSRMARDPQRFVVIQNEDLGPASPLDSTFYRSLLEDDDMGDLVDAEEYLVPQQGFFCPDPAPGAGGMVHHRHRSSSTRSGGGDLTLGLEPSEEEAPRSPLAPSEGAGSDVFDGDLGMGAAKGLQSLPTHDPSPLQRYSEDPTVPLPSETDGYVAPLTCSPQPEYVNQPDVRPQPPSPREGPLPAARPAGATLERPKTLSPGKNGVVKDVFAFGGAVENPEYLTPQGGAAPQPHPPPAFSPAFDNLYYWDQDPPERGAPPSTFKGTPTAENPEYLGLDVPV
Chain of EGFR (P00533 25-1210, species assumed): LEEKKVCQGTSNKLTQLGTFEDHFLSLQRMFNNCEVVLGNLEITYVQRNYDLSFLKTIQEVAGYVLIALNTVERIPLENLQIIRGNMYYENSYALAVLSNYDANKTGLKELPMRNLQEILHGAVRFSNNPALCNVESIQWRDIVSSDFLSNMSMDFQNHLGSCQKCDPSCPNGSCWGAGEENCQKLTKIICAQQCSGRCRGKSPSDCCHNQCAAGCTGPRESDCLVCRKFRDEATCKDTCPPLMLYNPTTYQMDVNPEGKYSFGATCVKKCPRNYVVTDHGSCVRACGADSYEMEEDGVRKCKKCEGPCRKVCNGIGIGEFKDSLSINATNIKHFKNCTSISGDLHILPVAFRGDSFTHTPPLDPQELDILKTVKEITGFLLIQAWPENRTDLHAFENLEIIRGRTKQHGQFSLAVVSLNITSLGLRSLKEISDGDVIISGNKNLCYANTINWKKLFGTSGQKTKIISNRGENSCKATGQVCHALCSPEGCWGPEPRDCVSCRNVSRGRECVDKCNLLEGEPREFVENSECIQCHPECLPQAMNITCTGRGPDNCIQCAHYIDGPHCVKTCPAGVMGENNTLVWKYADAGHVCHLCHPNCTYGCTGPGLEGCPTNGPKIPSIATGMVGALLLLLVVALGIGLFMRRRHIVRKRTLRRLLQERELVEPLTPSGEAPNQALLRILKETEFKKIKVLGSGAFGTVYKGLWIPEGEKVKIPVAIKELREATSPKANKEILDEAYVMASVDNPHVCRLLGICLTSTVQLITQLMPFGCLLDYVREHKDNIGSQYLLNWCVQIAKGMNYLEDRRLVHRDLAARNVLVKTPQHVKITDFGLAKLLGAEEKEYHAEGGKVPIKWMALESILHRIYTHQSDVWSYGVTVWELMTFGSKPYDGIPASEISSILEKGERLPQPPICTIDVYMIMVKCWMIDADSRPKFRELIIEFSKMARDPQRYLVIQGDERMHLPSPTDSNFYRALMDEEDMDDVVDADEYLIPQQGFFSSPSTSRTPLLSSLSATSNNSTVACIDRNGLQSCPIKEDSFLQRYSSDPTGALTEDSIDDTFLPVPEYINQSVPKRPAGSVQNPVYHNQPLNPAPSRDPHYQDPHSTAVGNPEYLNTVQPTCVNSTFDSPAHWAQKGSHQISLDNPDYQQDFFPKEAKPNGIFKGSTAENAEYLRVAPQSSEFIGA
Chain of JNK2 (P45984 whole entry, species assumed): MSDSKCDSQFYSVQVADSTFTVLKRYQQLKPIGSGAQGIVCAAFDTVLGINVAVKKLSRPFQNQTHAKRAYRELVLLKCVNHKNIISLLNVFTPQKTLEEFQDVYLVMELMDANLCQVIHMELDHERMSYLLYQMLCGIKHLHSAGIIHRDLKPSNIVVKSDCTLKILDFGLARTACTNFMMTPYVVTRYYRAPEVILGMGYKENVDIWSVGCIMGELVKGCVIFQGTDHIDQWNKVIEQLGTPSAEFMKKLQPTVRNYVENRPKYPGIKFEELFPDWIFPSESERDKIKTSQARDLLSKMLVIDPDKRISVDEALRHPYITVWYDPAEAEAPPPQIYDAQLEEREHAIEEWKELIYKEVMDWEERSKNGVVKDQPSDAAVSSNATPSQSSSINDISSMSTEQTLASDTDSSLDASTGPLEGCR

O=C1c2ccccc2-c2n[nH]c3cccc1c23 [CC-401]
Published (JNK2): 110 (Z. Han et al., J. Clin. Invest. 108, 73 (2001)) nM

CS(=O)(=O)CCNCc1ccc(-c2ccc3c(Nc4ccc(OCc5cccc(F)c5)c(Cl)c4)ncnc3c2)o1 [GW-2016]
Published (EGFR): 11 (D. W. Rusnak et al., Mol. Cancer Ther. 1, 85 (2001)) nM | Published (ERBB2): 9.2 (D. W. Rusnak et al., Mol. Cancer Ther. 1, 85 (2001)) nM

Oc1ccc(-c2nc(-c3ccncc3)c(-c3ccc(F)cc3)[nH]2)cc1 [SB202190]
Published (p38α [1]): 37 (B. Frantz et at., Biochemistry 37, 13846 (1998)). nM | binding (association) kinetics (p38α [2]; p38, known and also observed in the competition assays): fast

CCc1nc(-c2ccc(OC)cc2)[nH]c1-c1ccncc1 [SB202474]
decrease of the amount of phage-displayed p38 bound to the solid support (p38α [2]): neither SB202474 nor purvalanol A had a significant effect

CC(C)[C@H](CO)Nc1nc(Nc2cccc(Cl)c2)c2ncn(C(C)C)c2n1 [purvalanol A]
decrease of the amount of phage-displayed p38 bound to the solid support (p38α [2]; competition with immobilized SB202190, FIG. 1B): neither SB202474 nor purvalanol A had a significant effect
